Source: patent US9896445B2, “Heterocyclic inhibitors of ERK1 and ERK2 and their use in the treatment of cancer” (Asana Biosciences, LLC, priority 2015, dated 2018)

Legend:
[1] = target: T1, ERK1 (Homo sapiens, UniProt P27361); experiment: ERK1 HTRF (biochemical) assay
T1 construct: purchased Jubilant Biosys
Protocol: (§1) ERK1 and ERK2 HTRF (Biochemical) Assays
These assays employed a homogeneous time resolved fluorescence (HTRF) technique. […] The plate was incubated at room temperature for 60 min with shaking. […] The IC50 values (half maximal inhibitory concentration values) were subsequently determined using a sigmoidal dose-response curve (variable slope) in GraphPad Prism® 5 software.

[2] = target: T2, ERK2 (Homo sapiens, UniProt P28482); experiment: ERK2 HTRF (biochemical) assay
T2 construct: purchased Jubilant Biosys
T2 sequence (P28482 whole entry): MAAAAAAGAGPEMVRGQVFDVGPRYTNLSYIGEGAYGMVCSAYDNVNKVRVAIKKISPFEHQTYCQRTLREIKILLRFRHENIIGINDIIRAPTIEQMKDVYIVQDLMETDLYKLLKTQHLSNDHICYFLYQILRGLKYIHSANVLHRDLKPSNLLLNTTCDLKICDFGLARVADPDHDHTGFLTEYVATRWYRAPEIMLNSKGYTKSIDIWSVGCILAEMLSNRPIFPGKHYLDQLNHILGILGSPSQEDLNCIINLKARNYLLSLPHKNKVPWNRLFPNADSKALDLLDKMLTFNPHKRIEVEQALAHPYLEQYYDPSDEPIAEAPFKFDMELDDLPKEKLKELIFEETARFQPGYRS
Protocol: as §1
These assays employed a homogeneous time resolved fluorescence (HTRF) technique. The compounds were serially diluted by half-log with concentrations ranging from 0.0005 to 10 uM in the assay buffer (50 mM Tris pH=7.5, 1 mM EGTA, 2 mM DTT, 10 mM MgCl2, 0.1% Tween-20) and 20 uL of substrate-ATP mix [1 uM Biotin-LC-Myelin Basic Protein (MBP) derivatized Peptide (Anaspec)-24 uM ATP (Sigma)] was added to each well of the assay plate. Then 10 uL of enzyme mix [25 nM ERK1 or ERK2 (Jubilant Biosys) in assay buffer] was added to each well. The plate was incubated at room temperature for 60 min with shaking. The HTRF mix [625 nM LANCE® Ultra Europium-anti-phospho-MBP (Perkin Elmer) and 2 nM Phycolink® Streptavidin-Allophycocyanin (SA-APC) (Prozyme) in HTRF buffer (50 mM Tris-HCl pH=7.5, 100 mM NaCl, 0.1% BSA, 0.05% Tween20, 0.5 mM EDTA)] was prepared and 75 uL of this mix was added to the HTRF plate. After incubation for 60 min at room temperature, 10 uL of the reaction mixture was transferred to the HTRF assay plate and incubated for 45 min at room temperature with shaking. Plate was read using Pherastar in HTRF mode (excitation 337 nm, emission 665 & 620 nm). The IC50 values (half maximal inhibitory concentration values) were subsequently determined using a sigmoidal dose-response curve (variable slope) in GraphPad Prism® 5 software.

T1 sequence (P27361 whole entry): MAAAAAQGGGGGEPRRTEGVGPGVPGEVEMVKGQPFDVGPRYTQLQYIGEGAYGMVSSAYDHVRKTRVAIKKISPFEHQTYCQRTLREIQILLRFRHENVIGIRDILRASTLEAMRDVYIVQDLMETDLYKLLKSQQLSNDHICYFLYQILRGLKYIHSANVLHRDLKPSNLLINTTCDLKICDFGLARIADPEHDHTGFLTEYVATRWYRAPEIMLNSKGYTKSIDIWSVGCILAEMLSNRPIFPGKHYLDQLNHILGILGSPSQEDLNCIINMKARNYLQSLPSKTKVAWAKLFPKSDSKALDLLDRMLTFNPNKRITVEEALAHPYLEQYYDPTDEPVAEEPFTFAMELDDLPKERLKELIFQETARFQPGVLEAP

SMILES | IC50 ([1]; HTRF) [nM] | IC50 ([2]; HTRF) [nM] | IC50 ([1]; HTRF biochemical assay) [nM] | IC50 ([2]; HTRF biochemical assay) [nM]
Cc1cnc(Nc2ccc3c(c2)OCCO3)nc1-n1ccc(C(=O)NC(CO)c2ccccc2)c1 (stereo not drawn) [Compound 131, 1-(2-((2,3-dihydrobenzo[b] [1,4]dioxin-6-yl)-amino)-5-methyl-pyrimidin-4-yl)-N-(2-hydroxy-1-phenylethyl)-1H-pyrrole-3-carboxamide] | < 50 | ≤ 50 |  | 
Cc1cnc(Nc2ccc(F)c(C(=O)N3CCN(C)CC3)c2)nc1-n1ccc(C(=O)NC(CO)c2cccc(Cl)c2)c1 (stereo not drawn) [Compound 179, N-(1-(3-chlorophenyl)-2-hydroxyethyl)-1-(2-((4-fluoro-3-(4-methylpiperazine-1-carbonyl)phenyl)amino)-5-methyl-pyrimidin-4-yl)-1H-pyrrole-3-carboxamide] | < 50 | ≤ 50 |  | 
Cc1cn(-c2nc(Nc3ccc(F)cc3)ncc2C)cc1C(=O)NC(CO)c1cccc(Cl)c1 (stereo not drawn) [Compound 107, N-(1-(3-chlorophenyl)-2-hydroxyethyl)-1-(2-((4-fluoro-phenyl)amino)-5-methylpyrimidin-4-yl)-4-methyl-1H-pyrrole-3-carboxamide] | < 50 | ≤ 50 |  | 
O=C(NC(CO)c1ccccc1)c1ccn(-c2ccnc(Nc3ccc(F)cc3Cl)c2)c1 (stereo not drawn) [Compound 82, 1-(2-((2-chloro-4-fluorophenyl)amino)pyridin-4-yl)-N-(2-hydroxy-1-phenylethyl)-1H-pyrrole-3-carboxamide] | 50 to 100 | ≤ 50 |  | 
O=C(Nc1cnn(-c2ccnc(Nc3ccc4c(c3)OCO4)n2)c1)N[C@H](CO)c1cccc(Cl)c1 [Compound 21, (S)-1-(1-(2-(benzo[d][1,3]dioxol-5-ylamino)-pyrimidin-4-yl)-1H-pyrazol-4-yl)-3-(1-(3-chlorophenyl)-2-hydroxyethyl)urea] | < 50 | ≤ 50 |  | 
Cc1cnc(NC2CCOC2)nc1-n1cnc(C(=O)NC(CN)c2cccc(Cl)c2)c1 (stereo not drawn) [Compound 235, N-(2-amino-1-(3-chlorophenyl)ethyl)-1-(5-methyl-2-((tetrahydrofuran-3-yl)amino)pyrimidin-4-yl)-1H-imidazole-4-carboxamide] | < 50 | ≤ 50 |  | 
Cc1cnc(Nc2ccc3c(c2)OCO3)nc1-n1ccc(C(=O)NC(CO)c2cccnc2)c1 (stereo not drawn) [Compound 103, 1-(2-(benzo[d][1,3]dioxol-5-ylamino)-5-methylpyrimidin-4-yl)-N-(2-hydroxy-1-(pyridin-3-yl)ethyl)-1H-pyrrole-3-carboxamide] | 100 to 500 | ≤ 50 |  | 
CC[C@@H](CO)Nc1cc(-n2ccc(C(=O)NC(CO)c3cccc(Cl)c3)c2)ccn1 (stereo partly drawn) [Compound 109, N-(1-(3-chloro-phenyl)-2-hydroxy-ethyl)-1-(2-(((S)-1-hydroxybutan-2-yl)amino)pyridin-4-yl)-1H-pyrrole-3-carboxamide] | < 50 | ≤ 50 |  | 
Cc1cnc(Nc2ccc3c(c2)OCO3)nc1-n1cc(NC(=O)N[C@@H](CO)c2cccc(Cl)c2)cn1 [Compound 51, (R)-1-(1-(2-(benzo[d][1,3]dioxol-5-ylamino)-5-methylpyrimidin-4-yl)-1H-pyrazol-4-yl)-3-(1-(3-chloro-phenyl)-2-hydroxy-ethyl)urea] | 100 to 500 | 50 to 100 |  | 
Cc1cnc(NC2CCOCC2)nc1-n1cnc(C(=O)NCc2ccccc2CCO)c1 [Compound 94, N-(2-(2-hydroxyethyl)benzyl)-1-(5-methyl-2-((tetrahydro-2H-pyran-4-yl)amino)pyrimidin-4-yl)-1H-imidazole-4-carboxamide] | < 50 | ≤ 50 |  | 
O=C(N[C@H](CO)c1cccc(Cl)c1)c1ccn(-c2nc(NC3CCOCC3)ncc2F)c1 [Compound 229, (S)-N-(1-(3-chlorophenyl)-2-hydroxyethyl)-1-(5-fluoro-2-((tetrahydro-2H-pyran-4-yl)amino)-pyrimidin-4-yl)-1H-pyrrole-3-carboxamide] | < 50 | ≤ 50 |  | 
Cc1cnc(NC2CC(F)(F)C2)nc1-n1cnc(C(=O)N[C@H](CN)c2cc(F)cc(Cl)c2)c1 [Example 288, (S)-N-(2-amino-1-(3-chloro-5-fluoro-phenyl)ethyl)-1-(2-((3,3-difluoro-cyclobutyl)amino)-5-methylpyrimidin-4-yl)-1H-imidazole-4-carboxamide] | < 50 | ≤ 50 |  | 

Now from value to molecule:

IC50 ([1]; HTRF) [nM] | IC50 ([2]; HTRF) [nM] | IC50 ([1]; HTRF biochemical assay) [nM] | IC50 ([2]; HTRF biochemical assay) [nM] | SMILES
< 50 | ≤ 50 |  |  | Cc1cnc(Nc2cc3c(cc2Cl)OCO3)nc1-n1ccc(C(=O)NC(CO)c2cccc(Cl)c2)c1 (stereo not drawn) [Compound 101, 1-(2-((6-chloro-benzo[d][1,3]dioxol-5-yl)amino)-5-methylpyrimidin-4-yl)-N-(1-(3-chlorophenyl)-2-hydroxyethyl)-1H-pyrrole-3-carboxamide]
< 50 | ≤ 50 |  |  | Cc1cnc(Nc2ccc(N3CCNCC3)cc2)nc1-n1ccc(C(=O)NC(CO)c2ccccc2)c1 (stereo not drawn) [Compound 73, N-(2-hydroxy-1-phenylethyl)-1-(5-methyl-2-((4-(piperazin-1-yl)-phenyl)amino)pyrimidin-4-yl)-1H-pyrrole-3-carboxamide]
< 50 | ≤ 50 |  |  | Cc1cnc(NC2CCOCC2)nc1-n1cnc(C(=O)NC(CO)c2ccc(Cl)s2)c1 (stereo not drawn) [Example 257, N-(1-(5-chlorothiophen-2-yl)-2-hydroxy-ethyl)-1-(5-methyl-2-((tetrahydro-2H-pyran-4-yl)amino)-pyrimidin-4-yl)-1H-imidazole-4-carboxamide]
 |  | < 50 | ≤ 50 | Cc1cnc(NC2CCOCC2)nc1-n1cnc(C(=O)NC(C)(C)c2cccc(Cl)c2CO)c1 [Example 341, N-(2-(3-chloro-2-(hydroxymethyl)-phenyl)propan-2-yl)-1-(5-methyl-2-((tetrahydro-2H-pyran-4-yl)amino)-pyrimidin-4-yl)-1H-imidazole-4-carboxamide]
< 50 | ≤ 50 |  |  | COc1cc(C(=O)N2CCOCC2)c(F)cc1Nc1ncc(C)c(-n2ccc(C(=O)NC(CO)c3cccc(Cl)c3)c2)n1 (stereo not drawn) [Compound 181, N-(1-(3-chlorophenyl)-2-hydroxyethyl)-1-(2-((5-fluoro-2-methoxy-4-(morpholine-4-carbonyl)phenyl)amino)-5-methyl-pyrimidin-4-yl)-1H-pyrrole-3-carboxamide]
 |  | < 50 | ≤ 50 | Cc1cnc(NC2CCOCC2)nc1-n1cnc(C(=O)NCc2nc(Cl)sc2C)c1 [Example 328, N-((2-chloro-5-methylthiazol-4-yl)methyl)-1-(5-methyl-2-((tetrahydro-2H-pyran-4-yl)amino)-pyrimidin-4-yl)-1H-imidazole-4-carboxamide]
< 50 | ≤ 50 |  |  | Cc1cnc(Nc2ccc(F)cc2)cc1-n1cnc(C(=O)NC(CN)c2ccc(F)cc2)c1 (stereo not drawn) [Compound 230, N-(2-amino-1-(4-fluorophenyl)ethyl)-1-(2-((4-fluoro-phenyl)amino)-5-methylpyridin-4-yl)-1H-imidazole-4-carboxamide]
> 2500 | 500 to 2500 |  |  | O=C(NC(CO)c1cccc(Cl)c1)c1ccn(-c2ccnc(NC3CCNC3)c2)c1 (stereo not drawn) [Compound 145, N-(1-(3-chloro-phenyl)-2-hydroxy-ethyl)-1-(2-(pyrrolidin-3-ylamino)pyridin-4-yl)-1H-pyrrole-3-carboxamide]
< 50 | ≤ 50 |  |  | Cc1cnc(NC2CC2)nc1-n1ccc(C(=O)NC(CO)c2cccc(Cl)c2)c1 (stereo not drawn) [Compound 115, N-(1-(3-chloro-phenyl)-2-hydroxy-ethyl)-1-(2-(cyclopropylamino)-5-methylpyrimidin-4-yl)-1H-pyrrole-3-carboxamide]
